# Source: the NIST ThermoML archive (doi:10.1021/je401026a)
# ± gives the expanded uncertainty stated by the source.
# Details: 298 K; Liquid; Gas chromatography
row,Compound,vapor or sublimation pressure [kPa]
1,Cc1ccccc1OP(=O)(Oc1ccccc1C)Oc1ccccc1C [tri-2-tolyl phosphate],5.1e-08 ± 2.6e-08
2,Cc1cccc(OP(=O)(Oc2cccc(C)c2)Oc2cccc(C)c2)c1 [tri-m-tolyl phosphate],2.1e-08 ± 1.8e-08
3,"O=P(OC(CCl)CCl)(OC(CCl)CCl)OC(CCl)CCl [tris(1,3-dichloro-2-propanol) phosphate]",4.1e-07 ± 2.8e-07
4,"Cc1ccc(OP(=O)(Oc2ccc(C)cc2)Oc2ccc(C)cc2)cc1 [phosphoric acid, tri-p-cresyl ester]",1.1e-08 ± 1.2e-08
5,O=P(Oc1ccccc1)(Oc1ccccc1)Oc1ccccc1 [triphenyl phosphate],2.7e-07 ± 2e-07
6,CCCCC(CC)COP(=O)(Oc1ccccc1)Oc1ccccc1 (stereo unspecified) [2-ethylhexyl diphenyl phosphate],8.9e-08 ± 6.3e-08
7,CC(C)c1ccccc1OP(=O)(Oc1ccccc1C(C)C)Oc1ccccc1C(C)C [tris(2-(1-methylethyl)-phenol) phosphate],6e-09 ± 9e-09
8,CC(CCl)OP(=O)(OC(C)CCl)OC(C)CCl (stereo unspecified) [tris(1-chloro-2-propyl) phosphate],3.5e-05 ± 1.7e-05
9,O=P(OCCCl)(OCCCl)OCCCl [tris(2-chloroethyl) phosphate],4.8e-05 ± 2.2e-05
10,CCCCC(CC)COP(=O)(OCC(CC)CCCC)OCC(CC)CCCC (stereo unspecified) [tris(2-ethylhexyl) phosphate],2.1e-08 ± 1.8e-08
11,CCCCOCCOP(=O)(OCCOCCCC)OCCOCCCC [tris(2-butoxyethyl) phosphate],4.9e-08 ± 3.8e-08
